Values joined by “and” are separate entries in the source; they are usually repeats but may differ in a detail not shown here. Equal entries are not always repeated.
How the values were obtained:
prostate cancer lesions = assay: [^89Zr]Zr-PSMA-617 PET/CT tumor lesion detection and uptake in biochemical recurrence; assay type: in vivo, human (patients)
Method: Three patients had undetermined findings on [^68Ga]Ga-PSMA-11 PET/CT with no definite assignment to pathological or physiological uptake, e.g., faintly accumulating or unusually located tracer uptake. The time interval between both, [^89Zr]Zr-PSMA-617 and [^68Ga]Ga-PSMA-11 PET/CT, was 31 ± 18 days (range 5–49 days), with no treatment performed in between. Prostate-specific antigen (PSA) serum level at time of imaging ranged from 0.43 to 1.92 ng/ml. All patients were initially treated with radical prostatectomy (RP). Initial Gleason score ranged from 7a to 9. Four patients underwent salvage treatments such as androgen-deprivation therapy (ADT), lymphadenectomy (LA) or radiation therapy (RT). Detailed patient characteristics including age, Gleason score, primary therapy, salvage therapies, time from initial diagnosis (ID) of prostate cancer, PSA and PSA doubling time (DT) are presented in Table 1. [^89Zr]Zr-PSMA-617 PET/CT imaging was performed on a compassionate use basis under the German Pharmaceutical Act §13 (2b). The medical indication for the examination and the labeling of the tracer were under the direct responsibility of the applying physician. Patients gave their written consent after being thoroughly informed about the general risks of both radiation exposure and application of a novel PET tracer including possible adverse effects of, e.g., therapeutic PSMA tracers. Furthermore, all patients agreed to the publication of the resulting data in accordance with the Declaration of Helsinki.
(§1) Each patient underwent PET/CT imaging scans at 4 time points: 1 h, 24 h, 48 h, and 72 h post intravenous injection (p.i.) of 111 ± 11 MBq (mean ± standard deviation, range 97–129 MBq) [^89Zr]Zr-PSMA-617. All PET/CT imaging was performed on a Biograph mCT 40 scanner (Siemens Medical Solutions, Knoxville, TN, USA) comprising whole-body PET/CT scans extending from vertex to mid-femur in 3D mode. PET acquisition time duration was 4 min per bed position on the initial day of injection and extended up to 10 min on the last day. CT data were acquired in low-dose technique using an X-ray tube voltage of […] and a modulation of the tube current (CARE Dose4D, Siemens Erlangen; maximal tube current 30 mA) followed by reconstruction with a soft tissue reconstruction kernel (B31f) to a slice thickness of 5 mm (increment 2–4 mm). PET emission data was corrected for decay, randoms, and scatter. PET image reconstruction was performed applying an iterative 3-dimensional ordered-subset expectation maximization (OSEM) algorithm (3 iterations; 24 subsets) with gaussian filtering to a transaxial resolution of 5 mm at full width half maximum (FWHM). The matrix and the pixel size were 200 × 200 and 3.0 mm, respectively. Attenuation correction was performed using the low-dose CT data.
Three physicians with long-time experience in PSMA-targeted PET/CT (S.E., F.K., and F.R.) visually identified suspicious lesions taking into account all four imaging time points (1 h, 24 h, 48 h, and 72 h p.i.).

[1] = Radiation dosimetry of [^89Zr]Zr-PSMA-617 (QDOSE / IDAC 2.1); assay type: in vivo, human (patients); set-up: TIAC (time-integrated activity coefficient): unit not given here
Method: as §1
Mean absorbed radiation doses were estimated using the QDOSE program package (ABX-CRO, Dresden, Germany) considering the following organs as source organs: kidneys, liver, spleen, salivary glands (parotid gland and submandibular gland), and lacrimal gland. As a first step, volumetric co-registration of the different time points was performed by taking the first CT scan as reference. PET images, which were coupled to the CT images of the respective imaging session, were transformed according to the CT transformation matrix. Boundary VOIs which solely enclosed the source organs without interfering with the activity concentration of neighboring structures were manually drawn in the PET image that allowed the best organ delineation and then copied onto all other time-point scans. Manual adjustment of the boundary VOI for each time point was done when necessary, using the respective CT. Volume and activity estimation were performed within the boundary applying a fuzzy locally adaptive Bayesian (FLAB) segmentation algorithm for automatic volume delineation. The next step comprised mono-exponential regression of the serial measured activities using weighted least squares method and estimation of both, the time integrated activities (TIA) and the time-integrated activity coefficients (TIAC) in the source regions. As an approximation, a linear increase from t = 0 to the first acquisition time point was assumed, and the integration method for the first time interval was based on the trapezoidal method. Between the first and the last time point, a trapezoidal integration was used, whereas the TIA from the last time-point to infinity was calculated analytically by applying the mono-exponential fitting curve. The respective TIACs (often termed residence time) of the source organs were calculated by normalizing the TIA to the amount of activity administered. The total body TIA was calculated approximately using the total FOV volume of interest and the injected activity. As a further approximation, constant activity between t = 0 and the first acquisition time point was assumed, and the integration method for the first-time interval was based on the trapezoidal method. Between the first time point and infinity, the TIA was calculated analytically by using the mono-exponential fitting curve. Estimations of absorbed organ dose and effective dose were performed by the IDAC 2.1 software which is implemented in QDOSE [25–27]. The IDAC reference man was applied for the kidneys, the spleen, the liver, the heart and the intestine, and the sphere model for the salivary and lacrimal glands. […]

[2] = of the 11 lesions not visible at 1 h p.i.

Compound: O=C([O-])CN1CCN(CC(=O)[O-])CCN(CC(=O)NCC2CCC(C(=O)NC(Cc3ccc4ccccc4c3)C(=O)NCCCCC(NC(=O)NC(CCC(=O)O)C(=O)O)C(=O)O)CC2)CCN(CC(=O)[O-])CC1.[89Zr+4] (stereo not drawn) [[^89Zr]Zr-PSMA-617]
- Patients whose undetermined [^68Ga]Ga-PSMA-11 findings were confirmed (prostate cancer lesions; 3 patients with undetermined findings in [^68Ga]Ga-PSMA-11 PET/CT): 2 of 3
- Detectability of tumor lesions at late time points (prostate cancer lesions; 48 h p.i. and 72 h p.i.): All tumor lesions were detectable
- Findings on [^89Zr]Zr-PSMA-617 PET/CT (prostate cancer lesions; Pt. no 1, PSA 1.92 ng/ml): Local recurrence
- Findings on [^89Zr]Zr-PSMA-617 PET/CT (prostate cancer lesions; Pt. no 2, PSA 1.75 ng/ml): 3 × LNM (no right iliac LNM)
- Findings on [^89Zr]Zr-PSMA-617 PET/CT (prostate cancer lesions; Pt. no 3, PSA 0.66 ng/ml): No suspicious findings
- Findings on [^89Zr]Zr-PSMA-617 PET/CT (prostate cancer lesions; Pt. no 4, PSA 1.77 ng/ml): Peritoneal metastasis + 4 × LNM
- Findings on [^89Zr]Zr-PSMA-617 PET/CT (prostate cancer lesions; Pt. no 5, PSA 0.63 ng/ml): 1 × LNM
- Findings on [^89Zr]Zr-PSMA-617 PET/CT (prostate cancer lesions; Pt. no 6, PSA 0.43 ng/ml): Local recurrence (in seminal vesicle bed)
- Findings on [^89Zr]Zr-PSMA-617 PET/CT (prostate cancer lesions; Pt. no 7, PSA 0.68 ng/ml): Local recurrence + 2 × LNM
- Total number of lesions suggestive for prostate cancer (prostate cancer lesions; all 7 patients, range 1–5 per patient): 14 lesions
- Tumor lesions identified at 1 h p.i. (also visible in [^68Ga]Ga-PSMA-11 PET/CT) (prostate cancer lesions; in 3 patients): Three
- Patients with at least one prostate cancer lesion detected (prostate cancer lesions; of 7 patients with negative or undetermined [^68Ga]Ga-PSMA-11 PET/CT): 6 patients
- Peritoneal metastases among identified lesions (prostate cancer lesions; of n = 14 lesions): 1 lesions
- Tumor lesions not visible at 1 h p.i. but delineated at later time points (prostate cancer lesions; of n = 14 lesions): 11 lesions
- Local recurrences among identified lesions (prostate cancer lesions; of n = 14 lesions, in 3 patients): 3 lesions
- Lymph node metastases among identified lesions (prostate cancer lesions; of n = 14 lesions, in 4 patients): 10 lesions
- Tumor lesions first visible at 24 h p.i. (prostate cancer lesions; [2]): 9 lesions
- Tumor lesions first visible at 48 h p.i. (prostate cancer lesions; [2]): 2 lesions
- SUVmax of tumor lesion (prostate cancer lesions; patient no. 1, focal uptake in the prostate bed (local recurrence), 48 h p.i.): 3.68
- SUVmax of tumor lesion (prostate cancer lesions; patient no. 4, peritoneal lesion (peritoneal metastasis), 48 h p.i.): 2.87
- SUVmax of tumor lesion (prostate cancer lesions; patient no. 6, local recurrence in left seminal vesicle bed, 1 h p.i.): 7.04
- SUVmax of tumor lesion (prostate cancer lesions; patient no. 6, local recurrence in left seminal vesicle bed, 24 h p.i.): 21.27
- SUVmax of tumor lesion (prostate cancer lesions; patient no. 6, local recurrence in left seminal vesicle bed, 48 h p.i.): 21.09
- SUVmax of tumor lesion (prostate cancer lesions; patient no. 6, local recurrence in left seminal vesicle bed, 72 h p.i.): 19.19
- SUVmax of tumor lesion (prostate cancer lesions; patient no. 7, pelvic lymph node metastasis, 48 h p.i.): 8.06
- Overall effective dose, times higher than PET with [^68Ga]Ga-PSMA-617 or [^68Ga]Ga-PSMA-11 ([1]; 111 MBq vs diagnostic activity of 200 MBq of the 68Ga tracers (ref 29, 30)): 2–3 times
- Effective dose ([1]; average of 7 patients, mean ± SD): 0.0913 ± 0.0118 mSv/MBq
- Absorbed doses of parotid glands and kidneys, times higher than [^68Ga]Ga-PSMA-617 and [^68Ga]Ga-PSMA-11 ([1]; in absolute numbers, comparators ref 29, 30): 3–4 times
- TIAC (time-integrated activity coefficient) ([1]; kidneys, mean ± SD): 1.74 ± 0.44
- l (rate constant) ([1]; kidneys, mean ± SD): 0.022 ± 0.002 h⁻¹
- A (% injected A0), monoexponential curve-fitting parameter ([1]; kidneys, mean ± SD, n = 7 patients): 3.75 ± 1.24 % injected A0
- Absorbed dose ([1]; kidneys, mean ± SD, IDAC 2.1): 0.517 ± 0.125 mGy/MBq
- A (% injected A0), monoexponential curve-fitting parameter ([1]; lacrimal gland, mean ± SD): 0.02 ± 0.01 % injected A0
- l (rate constant) ([1]; lacrimal gland, mean ± SD): 0.030 ± 0.006 h⁻¹
- Absorbed dose ([1]; lacrimal gland, mean ± SD, sphere model): 0.156 ± 0.070 mGy/MBq
- A (% injected A0), monoexponential curve-fitting parameter ([1]; liver, mean ± SD): 6.62 ± 1.39 % injected A0
- TIAC (time-integrated activity coefficient) ([1]; liver, mean ± SD): 1.54 ± 0.49
- l (rate constant) ([1]; liver, mean ± SD): 0.049 ± 0.014 h⁻¹
- Absorbed dose ([1]; liver, mean ± SD, IDAC 2.1): 0.158 ± 0.051 mGy/MBq
- A (% injected A0), monoexponential curve-fitting parameter ([1]; parotid gland, mean ± SD): 0.70 ± 0.20 % injected A0
- TIAC (time-integrated activity coefficient) ([1]; parotid gland, mean ± SD): 0.31 ± 0.10
- l (rate constant) ([1]; parotid gland, mean ± SD): 0.031 ± 0.005 h⁻¹
- Absorbed dose ([1]; parotid gland, mean ± SD, sphere model): 0.601 ± 0.185 mGy/MBq
- A (% injected A0), monoexponential curve-fitting parameter ([1]; spleen, mean ± SD): 1.25 ± 0.70 % injected A0
- TIAC (time-integrated activity coefficient) ([1]; spleen, mean ± SD): 0.21 ± 0.12
- l (rate constant) ([1]; spleen, mean ± SD): 0.079 ± 0.034 h⁻¹
- Absorbed dose ([1]; spleen, mean ± SD, IDAC 2.1): 0.175 ± 0.068 mGy/MBq
- A (% injected A0), monoexponential curve-fitting parameter ([1]; submandibular gland, mean ± SD): 0.27 ± 0.09 % injected A0
- TIAC (time-integrated activity coefficient) ([1]; submandibular gland, mean ± SD): 0.13 ± 0.04
- l (rate constant) ([1]; submandibular gland, mean ± SD): 0.029 ± 0.004 h⁻¹
- Absorbed dose ([1]; submandibular gland, mean ± SD, sphere model): 0.468 ± 0.136 mGy/MBq and 0.468 ± 0.185 mGy/MBq
